Assay in all cases: ≥ marks a high value that may be exact or a test limit, other limits are often not marked, values filed in µg/mL are converted to µM
Test [1] relates to Pseudomonas putida.
Test [2] relates to Bacillus magaterium AB90008.
Test [3] has as its system Micrococcus luteus AB2010179.
Test [4] has as its system Klebsiella oxytoca AB2010143.
The test system of test [5] is Enterobacter cloacae AB2010162.
In test [6] the test system is Escherichia coli DH5alpha.
Test [7] concerns Salmonella enterica AB2010185.
Test [8] relates to Staphylococcus aureus AB94004.
Test [9] deals with Pseudomonas fluorescens.
Test [10] relates to Staphylococcus aureus MRSA-15.
Test [11] relates to Acinetobacter baumannii Q12-0809.
Test [12] has as its system Pseudomonas aeruginosa Q14-0890.
Test [13] concerns Staphylococcus aureus Q14-0320.
Test [14] concerns Campylobacter jejuni NCTC 11351.
Test [15] deals with Klebsiella pneumoniae NCTC 13442.
The subject of test [16] is Klebsiella pneumoniae ATCC 700603.
For test [17], the system named is Listeria monocytogenes NCTC 11994.
For test [18], the system named is Salmonella typhimurium SL1344.
Test [19] deals with Staphylococcus aureus NCTC 12493.
The subject of test [20] is Staphylococcus aureus ATCC 29213.
Test [21] has as its system Pseudomonas aeruginosa PAO1.
Test [22] has as its system Pseudomonas aeruginosa ATCC 27853.
The test system of test [23] is Escherichia coli.
Test [24] has as its system Enterococcus faecalis JH-2-2.
In test [25] the test system is Campylobacter jejuni.
Test [26] relates to Klebsiella pneumoniae Q14-0095.
Test [27] has as its system Acinetobacter baumannii Q13-0717.
For test [28], the system named is Pseudomonas aeruginosa Q12-0581.
The subject of test [29] is Escherichia coli K-12.
Test [30] concerns Acinetobacter baumannii Q12-0867.
The subject of test [31] is Staphylococcus aureus RN4220.
Test [32] relates to Pseudomonas aeruginosa Q14-0208.
The subject of test [33] is Escherichia coli NCTC 10418.
Test [34] concerns Staphylococcus aureus ATCC 25923(GenR).
Test [35] has as its system Bacillus subtilis ATCC 23857.
In test [36] the test system is Staphylococcus aureus NCTC 10788.
Test [37] relates to Staphylococcus aureus ATCC 25923(RifR).
Test [38] concerns Enterococcus faecalis NCTC 12697.
Test [39] has as its system Escherichia coli ATCC 25922(RifR).
The subject of test [40] is Escherichia coli ATCC 25922(GenR).
Test [41] relates to Candida albicans NCPF 1467.
Test [42] concerns Pseudomonas aeruginosa CGMCC 1.2421.
The test system of test [43] is Escherichia coli CGMCC 1.8732.
In test [44] the test system is Bacillus subtilis CGMCC 1.3376.
Test [45] relates to Staphylococcus epidermidis CGMCC 1.4260.
The test system of test [46] is Staphylococcus aureus CGMCC 1.8721.
Test [47] concerns Klebsiella pneumoniae CGMCC 1.1736.

Converted amounts (≈) assume the structure as drawn. Bounds are passed on as bounds.

One may read the MIC as the smallest concentration in the dilution series that meets the test's criterion for growth inhibition. The low end stands for greater potency, the high end for weaker potency. As for `CC[C@H](C)[C@H](NC(=O)[C@H](CC(C)C)NC(=O)[C@H](CCCCN)NC(=O)[C@H](CC(C)C)NC(=O)[C@H](C)NC(=O)CNC(=O)[C@H](CCCCN)NC(=O)[C@H](C)NC(=O)[C@H](CC(C)C)NC(=O)[C@H](C)NC(=O)CNC(=O)[C@H](Cc1c[nH]c2ccccc12)NC(=O)[C@@H](N)Cc1ccccc1)C(=O)N1CCC[C@H]1C(=O)N[C@@H](CO)C(=O)N[C@@H](CC(C)C)C(=O)N[C@H](C(=O)N[C@@H](CO)C(=O)N[C@@H](CO)C(=O)N[C@@H](Cc1ccccc1)C(=O)N[C@H](C(=O)N[C@@H](CCCCN)C(=O)N[C@@H](CCCCN)C(=O)N[C@@H](CC(=O)O)C(N)=O)[C@@H](C)O)C(C)C` [FWGALAKGALKLIPSLVSSFTKKD], the minimum inhibitory concentration (MIC) in test [1] is 20 µM (≈ 51.5 µg/mL); in [2], 30 µM (≈ 77.3 µg/mL); in test [3], 15.8 µM (≈ 40.7 µg/mL); in test [4], no less than 45 µM; in test [5], no less than 45 µM; in [6], 15.8 µM (≈ 40.7 µg/mL). For the same molecule, the MIC in [7] was 30 µM (≈ 77.3 µg/mL); in [8], 5.6 µM (≈ 14.4 µg/mL); in test [9] it was no less than 40 µM.

Consider `CC(C)[C@H](NC(=O)[C@@H](N)CCC(N)=O)C(=O)N[C@@H](CCCN=C(N)N)C(=O)N[C@@H](Cc1c[nH]c2ccccc12)C(=O)N[C@@H](Cc1c[nH]c2ccccc12)C(=O)NCC(=O)N[C@@H](CCCN=C(N)N)C(=O)N[C@@H](Cc1ccc(O)cc1)C(=O)N[C@@H](Cc1c[nH]c2ccccc12)C(=O)N[C@@H](CCCN=C(N)N)C(=O)N[C@@H](CCCN=C(N)N)C(=O)N[C@@H](CCCCN)C(=O)N[C@@H](Cc1c[nH]c2ccccc12)C(=O)N[C@@H](C)C(=O)N[C@H](C(=O)N[C@@H](CS)C(=O)N[C@@H](CCCN=C(N)N)C(=O)O)[C@@H](C)O` [QVRWWGRYWRRKWATCR], for which the MIC was no less than 104 µM in test [10]; 13.4 µM (≈ 32 µg/mL) in test [11]; 13.4 µM (≈ 32 µg/mL) in [12]; 26.7 µM (≈ 64 µg/mL) in test [13]; no less than 53.4 µM in [14]; no less than 53.4 µM in test [15]. Further, the minimal inhibitory concentration (MIC) in test [16] is 26.7 µM (≈ 64 µg/mL); in [17] it was no less than 53.4 µM; in [18] it was no less than 107 µM; in test [19] it was 6.68 µM (≈ 16 µg/mL); in test [20], 26.7 µM (≈ 64 µg/mL); in test [21] it was 214 µM (≈ 512 µg/mL). Moreover, the minimum inhibitory concentration (MIC) was 53.4 µM (≈ 128 µg/mL) in test [22]; greater than 53.4 µM in test [23]; no less than 107 µM in test [24]; no less than 53.4 µM in [25]; no less than 53.4 µM in [26]; 26.7 µM (≈ 64 µg/mL) in test [27]. Also, the MIC is no less than 53.4 µM in test [28]; no less than 107 µM in test [29]; 6.68 µM (≈ 16 µg/mL) in test [30]; no less than 107 µM in test [31]; 26.7 µM (≈ 64 µg/mL) in [32].

In the case of `CC[C@H](C)[C@H](NC(=O)[C@@H]1CCCN1C(=O)[C@H](CC(C)C)NC(=O)[C@@H](N)Cc1ccccc1)C(=O)N[C@H](C(=O)N[C@@H](C)C(=O)N[C@@H](CCCCN)C(=O)N[C@@H](CC(C)C)C(=O)N[C@@H](CC(C)C)C(=O)N[C@@H](CO)C(=O)NCC(=O)N[C@@H](CC(C)C)C(=O)N[C@@H](CC(C)C)C(N)=O)C(C)C` [FLPIVAKLLSGLL], the MIC in test [33] was 16 µM (≈ 22.1 µg/mL); in test [16], greater than 128 µM; in test [34] it was 8 µM (≈ 11.1 µg/mL); in test [35], 4 µM (≈ 5.53 µg/mL); in test [19], 4 µM (≈ 5.53 µg/mL); in test [36], 2 µM (≈ 2.77 µg/mL). Besides, the minimum inhibitory concentration (MIC) in test [22] is 128 µM (≈ 177 µg/mL); in test [37], 16 µM (≈ 22.1 µg/mL); in test [38], 8 µM (≈ 11.1 µg/mL); in [39], no less than 32 µM; in test [40] it was no less than 32 µM; in test [41], 4 µM (≈ 5.53 µg/mL).

On to `CC[C@H](C)[C@H](NC(=O)[C@H](C)N)C(=O)NCC(=O)N[C@@H](CO)C(=O)N[C@H](C(=O)N[C@@H](CC(C)C)C(=O)NCC(=O)N[C@@H](C)C(=O)N[C@@H](CC(C)C)C(=O)N[C@@H](C)C(=O)N[C@@H](CCCCN)C(=O)NCC(=O)N[C@@H](CC(C)C)C(=O)N1CCC[C@H]1C(=O)N[C@H](C(=O)N[C@@H](CC(C)C)C(=O)N[C@@H](CCCN=C(N)N)C(=O)N[C@@H](CO)C(=O)N[C@@H](Cc1c[nH]c2ccccc12)C(=O)N[C@H](C(=O)N[C@@H](CCCCN)C(=O)N[C@@H](CC(N)=O)C(=O)N[C@@H](CCCN=C(N)N)C(N)=O)[C@@H](C)CC)[C@@H](C)O)[C@@H](C)CC` [AIGSILGALAKGLPTLRSWIKNR], for which the MIC in test [42] was 12.5 µM (≈ 30.4 µg/mL); in test [43] it was 12.5 µM (≈ 30.4 µg/mL); in test [44] it was 3.13 µM (≈ 7.62 µg/mL); in [45] it was 6.25 µM (≈ 15.2 µg/mL); in test [46], 25 µM (≈ 60.9 µg/mL); in test [47] it was 25 µM (≈ 60.9 µg/mL).

The values are drawn from DBAASP.
